# Results reported in patent US10966426B2, “Herbicidal compositions comprising phenylpyrimidines” (BASF SE, priority 2016, dated 2021).
# Several values for one entry are separate records, joined by “and”; a condition that tells them apart may be missing. Equal values may be shown once.
# What was measured:
# Type in all cases: in vivo
# Ambrosia elatior = test: greenhouse pre-emergence treatment, AMBEL; conditions: AMBEL
# Method in brief: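 Damage rated on 0 to 100 scale (0 = normal growth, 100 = no emergence or total above-ground kill) after 2-4 weeks at species-dependent 10-25° C or 20-35° C. Seeds sown per species in loamy sand, ~3.0% humus, treated right after sowing with aqueous spray of single actives or 10% emulsion-concentrate mixtures, then hooded; additive expectation by Colby.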
# Poa annua = test: greenhouse post-emergence treatment, POAAN; conditions: POAAN
# Method in brief: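 Seeds sown per species in pots of loamy sand; seedlings either grown in place or transplanted days before treatment. Post-emergence spray of water-based liquor at 3–15 cm height. Injury rated 0–100 over 2 to 4 weeks.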
# Alopecurus myosuroides = test: greenhouse post-emergence treatment, ALOMY; conditions: ALOMY
# Method in brief: (§1)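 Plants were grown in pots of loamy sand with approximately 3.0% humus, either sown directly or transplanted as seedlings a few days before treatment, and sprayed with water-based treatments. They were kept at 10-25° C. or 20-35° C. depending on species and rated visually after 2 to 4 weeks on a 0–100 scale (100 = no emergence or complete destruction of above-ground parts).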
# Papaver rhoeas = test: greenhouse post-emergence treatment, PAPRH; conditions: PAPRH
# Method in brief: (§2)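 Foliar application to greenhouse-grown plants 3–15 cm tall in humus-containing loamy sand; response assessed on a 0–100 scale after 2–4 weeks, with Colby's E=X+Y−(X·Y/100) as the additive expectation.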
# Avena fatua = test: greenhouse post-emergence treatment, AVEFA; conditions: AVEFA
# Method in brief: as §1
# Matricaria chamomilla = test: greenhouse post-emergence treatment, MATCH; conditions: 20 DAT, MATCH, Table X3
# Method in brief: as §2
# [1] = Ex. 5 solo, 62.5 gai/ha, 20 DAT
# [2] = solo Ex. 5 62.5 gai/ha, 20 DAT, 2nd series of rows
# [3] = Table X12, 20 DAT, solo Ex. 5 31.25 gai/ha
# [4] = Table X12, 20 DAT, solo Ex. 5 62.5 gai/ha
# [5] = Table X12, 20 DAT, solo Ex. 5 125 gai/ha
# [6] = Ex. 5 solo, 62.5 gai/ha, 21 DAT
compound,measurement,setting,value
O=C(O)c1nc(C2CC2)ncc1-c1ccccc1Cl [Ex. 5],"% activity, solo application","Ambrosia elatior; 31.25 gai/ha, 20 DAT, Table X1",30%
same,"% activity, solo application","Ambrosia elatior; 62.5 gai/ha, 20 DAT, Table X1",45%
same,"% activity, solo application","Ambrosia elatior; 62.5 gai/ha, 20 DAT, Table X2",0%
same,"% activity, solo application","Ambrosia elatior; 62.5 gai/ha, 20 DAT, Table X6",0%
same,"% activity, solo application","Ambrosia elatior; 250 gai/ha, 20 DAT, Table X1",98%
same,% activity,"Ambrosia elatior; 20 DAT, solo Ex. 5 31.25 gai/ha",10%
same,% activity,"Ambrosia elatior; 20 DAT, solo Ex. 5 31.25 gai/ha (Table X70)",20%
same,% activity,"Ambrosia elatior; 20 DAT, solo Ex. 5 62.5 gai/ha",70%
same,% activity,"Ambrosia elatior; 20 DAT, solo Ex. 5 125 gai/ha",85%
same,% activity,Ambrosia elatior; [1],70%
same,% activity,"Ambrosia elatior; Table X10, 20 DAT, solo Ex. 5 31.25 gai/ha",30%
same,% activity,"Ambrosia elatior; Table X10, 20 DAT, solo Ex. 5 62.5 gai/ha",45%
same,% activity,"Ambrosia elatior; Table X11, 20 DAT, solo Ex. 5 62.5 gai/ha",45%
same,% activity,"Ambrosia elatior; solo, 62.5 gai/ha, 20 DAT",70%
same,% activity,"Ambrosia elatior; solo, 125 gai/ha, 21 DAT",70%
same,% activity,"Poa annua; solo Ex. 5 62.5 gai/ha, 20 DAT",80%
same,% activity,"Poa annua; solo Ex. 5 125 gai/ha, 20 DAT",80%
same,% activity,"Poa annua; solo Ex. 5 125 gai/ha, 21 DAT",85%
same,% activity,"Poa annua; solo Ex. 5 250 gai/ha, 21 DAT",85%
same,% activity,"Poa annua; Table X8, 20 DAT, solo Ex. 5 125 gai/ha",90%
same,% activity,"Poa annua; Table X8, 20 DAT, solo Ex. 5 250 gai/ha",90%
same,% activity,"Poa annua; solo, 62.5 gai/ha, 20 DAT",85%
same,% activity,"Poa annua; solo, 125 gai/ha, 20 DAT",85%
same,% activity,"Poa annua; solo, 250 gai/ha, 20 DAT",85%
same,"% activity, solo application","Alopecurus myosuroides; 62.5 gai/ha, 20 DAT, Table X3",75%
same,"% activity, solo application","Alopecurus myosuroides; 125 gai/ha, 20 DAT, Table X7",80%
same,"% activity, solo application","Alopecurus myosuroides; 250 gai/ha, 20 DAT, Table X5",85%
same,"% activity, solo application","Alopecurus myosuroides; 250 gai/ha, 20 DAT, Table X7",75%
same,% activity,"Alopecurus myosuroides; solo Ex. 5 15 gai/ha, 20 DAT, 2nd series of rows",80%
same,% activity,"Alopecurus myosuroides; solo Ex. 5 62.5 gai/ha, 20 DAT",70% and 68%
same,% activity,Alopecurus myosuroides; [2],70%
same,% activity,"Alopecurus myosuroides; solo Ex. 5 125 gai/ha, 20 DAT",70%
same,% activity,"Alopecurus myosuroides; solo Ex. 5 250 gai/ha, 20 DAT",73%
same,% activity,"Alopecurus myosuroides; solo Ex. 5 250 gai/ha, 20 DAT, 2nd series of rows",80%
same,% activity,"Alopecurus myosuroides; solo Ex. 5 250 gai/ha, 21 DAT",80%
same,% activity,"Alopecurus myosuroides; solo Ex. 5 500 gai/ha, 20 DAT",78%
same,% activity,"Alopecurus myosuroides; solo Ex. 5 500 gai/ha, 20 DAT, 2nd series of rows",80%
same,% activity,Alopecurus myosuroides; [3],70%
same,% activity,Alopecurus myosuroides; [4],70%
same,% activity,Alopecurus myosuroides; [5],80%
same,% activity,"Alopecurus myosuroides; solo, 62.5 gai/ha, 20 DAT",75%
same,% activity,"Alopecurus myosuroides; solo, 125 gai/ha, 20 DAT",80% and 75%
same,% activity,"Alopecurus myosuroides; solo, 250 gai/ha, 20 DAT",80%
same,"% activity, solo application","Papaver rhoeas; 62.5 gai/ha, 20 DAT, Table X3",20%
same,"% activity, solo application","Papaver rhoeas; 125 gai/ha, 20 DAT, Table X3",75%
same,"% activity, solo application","Papaver rhoeas; 125 gai/ha, 20 DAT, Table X4",5%
same,"% activity, solo application","Papaver rhoeas; 125 gai/ha, 20 DAT, Table X5",30%
same,% activity,Papaver rhoeas; [1],25%
same,% activity,Papaver rhoeas; [6],60%
same,% activity,"Papaver rhoeas; 20 DAT, solo Ex. 5 62.5 gai/ha",70%
same,% activity,"Papaver rhoeas; 20 DAT, solo Ex. 5 125 gai/ha",65%
same,% activity,"Papaver rhoeas; 20 DAT, solo Ex. 5 125 gai/ha (Table X66)",65%
same,% activity,"Papaver rhoeas; 21 DAT, solo Ex. 5 125 gai/ha",60%
same,% activity,"Papaver rhoeas; 21 DAT, solo Ex. 5 250 gai/ha",80%
same,% activity,"Papaver rhoeas; solo Ex. 5 62.5 gai/ha, 20 DAT",0%
same,% activity,"Papaver rhoeas; solo Ex. 5 62.5 gai/ha, 21 DAT",0%
same,% activity,"Papaver rhoeas; solo Ex. 5 125 gai/ha, 21 DAT",10%
same,% activity,"Papaver rhoeas; solo Ex. 5 250 gai/ha, 20 DAT",65%
same,% activity,"Papaver rhoeas; solo Ex. 5 250 gai/ha, 21 DAT",65%
same,% activity,"Papaver rhoeas; solo, 250 gai/ha, 20 DAT",70% and 75%
same,"% activity, solo application","Avena fatua; 125 gai/ha, 20 DAT, Table X4",75%
same,"% activity, solo application","Avena fatua; 125 gai/ha, 20 DAT, Table X5",70%
same,"% activity, solo application","Avena fatua; 250 gai/ha, 20 DAT, Table X5",75%
same,% activity,"Avena fatua; 20 DAT, solo Ex. 5 125 gai/ha",85%
same,% activity,"Avena fatua; 20 DAT, solo Ex. 5 250 gai/ha",85%
same,% activity,"Avena fatua; solo Ex. 5 62.5 gai/ha, 20 DAT",68%
same,% activity,Avena fatua; [2],75%
same,% activity,"Avena fatua; solo Ex. 5 125 gai/ha, 20 DAT",70%
same,% activity,"Avena fatua; solo Ex. 5 250 gai/ha, 20 DAT",75% and 70%
same,% activity,"Avena fatua; solo Ex. 5 500 gai/ha, 20 DAT",75%
same,% activity,Avena fatua; [6],80%
same,% activity,"Avena fatua; Ex. 5 solo, 125 gai/ha, 21 DAT",80%
same,% activity,"Avena fatua; Ex. 5 solo, 250 gai/ha, 21 DAT",85%
same,% activity,Avena fatua; [3],70%
same,% activity,Avena fatua; [4],75% and 80%
same,% activity,Avena fatua; [5],85%
same,% activity,"Avena fatua; Table X12, 20 DAT, solo Ex. 5 250 gai/ha",90%
same,% activity,"Avena fatua; solo, 62.5 gai/ha, 20 DAT",70% and 55%
same,% activity,"Avena fatua; solo, 125 gai/ha, 20 DAT",75% and 80% and 60%
same,% activity,"Avena fatua; solo, 250 gai/ha, 20 DAT",80%
same,"% activity, solo application",Matricaria chamomilla; 62.5 gai/ha,30%
same,"% activity, solo application",Matricaria chamomilla; 125 gai/ha,30%
